Data from patent publication US20090054392A1, “NAPHTHYLPYRIMIDINE, NAPHTHYLPYRAZINE AND NAPHTHYLPYRIDAZINE ANALOGS AND THEIR USE AS AGONISTS OF THE WNT-BETA-CATENIN CELLULAR MESSAGING SYSTEM” (Wyeth, priority 2007, published 2009).

System: Dkk1-LRP5-TCF-Luciferase
Test: Functional Dkk1-LRP5-TCF-Luciferase Assay in U2OS Cells
Conditions: for fold induction at 2 µM / fold induction at 20 µM / EC50: Homo sapiens, U2OS; for fold induction at 2 µM: read-out: B = TCF ACTIVITY/DMSO CONTROL Fold induction @ 2.0 uM, 2.0 uM compound; for fold induction at 20 µM: read-out: C = TCF ACTIVITY/DMSO CONTROL Fold induction @ 20.0 uM, 20.0 uM compound; for A = MAX FOLD Induction/DMSO CONTROL: maximum fold induction over DMSO control

Row | A = MAX FOLD Induction/DMSO CONTROL | EC50 | SMILES | fold induction at 2 µM | fold induction at 20 µM
1 | 2.115 fold |  | CN(C)[C@H]1CCN(C(=O)[C@H]2CCCN2c2nccc(-c3ccc4ccccc4c3)n2)C1 [(3S)—N,N-dimethyl-1-{1-[4-(2-naphthyl)pyrimidin-2-yl]-D-prolyl}pyrrolidin-3-amine] | 1.05 | 2.43
2 | 2.175 fold |  | CN(C)[C@H]1CCN(C(=O)[C@@H]2CCCN2c2nccc(-c3ccc4ccccc4c3)n2)C1 [(3S)—N,N-dimethyl-1-{1-[4-(2-naphthyl)pyrimidin-2-yl]-L-prolyl}pyrrolidin-3-amine] | 1.16 | 3.37
3 | 2.945 fold | 2700 nM | CN(C)C(=O)N1CC[C@H](Nc2nccc(-c3ccc4ccccc4c3)n2)C1 [(3S)—N,N-dimethyl-3-{[4-(2-naphthyl)pyrimidin-2-yl]amino}pyrrolidine-1-carboxamide] | 2.05 | 3.05
4 | 2.050 fold | 3960 nM | CN(C)S(=O)(=O)N1CC[C@H](Nc2nccc(-c3ccc4ccccc4c3)n2)C1 [(3S)—N,N-dimethyl-3-{[4-(2-naphthyl)pyrimidin-2-yl]amino}pyrrolidine-1-sulfonamide] | 1.09 | 2.01
5 |  |  | c1ccc2cc(-c3ccnc(N4CC[C@H](NCCN5CCOCC5)C4)n3)ccc2c1 [(3S)—N-(2-morpholin-4-ylethyl)-1-[4-(2-naphthyl)pyrimidin-2-yl]pyrrolidin-3-amine] | 1.39 | 0.91
6 | 2.690 fold |  | CC(C)(C)N[C@H]1CCN(c2nccc(-c3ccc4ccccc4c3)n2)C1 [(3S)—N-(tert-butyl)-1-[4-(2-naphthyl)pyrimidin-2-yl]pyrrolidin-3-amine] | 2.39 | 
7 |  |  | CN(C1CCCCC1)[C@H]1CCN(c2nccc(-c3ccc4ccccc4c3)n2)C1 [(3S)—N-cyclohexyl-N-methyl-1-[4-(2-naphthyl)pyrimidin-2-yl]pyrrolidin-3-amine] | 1.22 | 0.01
8 | 2.500 fold |  | CCNC(=O)N1CC[C@H](Nc2nccc(-c3ccc4ccccc4c3)n2)C1 [(3S)—N-ethyl-3-{[4-(2-naphthyl)pyrimidin-2-yl]amino}pyrrolidine-1-carboxamide] | 2.49 | 2.81
9 |  |  | CN[C@H]1CCN(c2nccc(-c3ccc4ccccc4c3)n2)C1 [(3S)—N-methyl-1-[4-(2-naphthyl)pyrimidin-2-yl]pyrrolidin-3-amine] | 1.75 | 
10 |  |  | N[C@H]1CCN([C@@H]2CCN(c3nccc(-c4ccc5ccccc5c4)n3)C2)C1 [(3S,3′R)-1′-[4-(2-naphthyl)pyrimidin-2-yl]-1,3′-bipyrrolidin-3-amine] | 1.2 | 
11 |  |  | O[C@H]1CCN([C@@H]2CCN(c3nccc(-c4ccc5ccccc5c4)n3)C2)C1 [(3S,3′R)-1′-[4-(2-naphthyl)pyrimidin-2-yl]-1,3′-bipyrrolidin-3-ol] |  | 3
12 | 3.175 fold | 1110 nM | CN(C)[C@H]1CCN([C@@H]2CCN(c3nccc(-c4ccc5ccccc5c4)n3)C2)C1 [(3S,3′R)-N,N-dimethyl-1′-[4-(2-naphthyl)pyrimidin-2-yl]-1,3′-bipyrrolidin-3-amine] | 2.64 | 
13 |  |  | O[C@H]1CCN([C@H]2CCN(c3nccc(-c4ccc5ccccc5c4)n3)C2)C1 [(3S,3′S)-1′-[4-(2-naphthyl)pyrimidin-2-yl]-1,3′-bipyrrolidin-3-ol] | 2.1 | 
14 | 2.030 fold |  | CN(C)[C@H]1CCN([C@H]2CCN(c3nccc(-c4ccc5ccccc5c4)n3)C2)C1 [(3S,3′S)-N,N-dimethyl-1′-[4-(2-naphthyl)pyrimidin-2-yl]-1,3′-bipyrrolidin-3-amine] | 2.47 | 0.02
15 |  |  | c1ccc2cc(-c3ccnc(N4C[C@H]5CNC[C@H]5C4)n3)ccc2c1 [(3aR*,6aS*)-2-[4-(2-naphthyl)pyrimidin-2-yl]octahydropyrrolo[3,4-c]pyrrole] | 1.73 | 0.01
16 |  |  | c1ccc2cc(-c3ccnc(N4CC[C@@H]5CNC[C@@H]5C4)n3)ccc2c1 [(3aR,7aS)-5-[4-(2-naphthyl)pyrimidin-2-yl]octahydro-1H-pyrrolo[3,4-c]pyridine] | 1.8 | 
17 | 1.935 fold | 4510 nM | O=C1CCCN1[C@@H]1CCN(c2nccc(-c3ccc4ccccc4c3)n2)C1 [(3′R)-1′-[4-(2-naphthyl)pyrimidin-2-yl]-1,3′-bipyrrolidin-2-one] | 1.43 | 2.12
18 | 2.760 fold |  | c1ccc2cc(-c3ccnc(N4CC[C@@H](N5CCCC5)C4)n3)ccc2c1 [(3′R)-1′-[4-(2-naphthyl)pyrimidin-2-yl]-1,3′-bipyrrolidine] | 1.38 | 2.62
19 | 2.290 fold | 189 nM | O=C1CCCN1[C@H]1CCN(c2nccc(-c3ccc4ccccc4c3)n2)C1 [(3′S)-1′-[4-(2-naphthyl)pyrimidin-2-yl]-1,3′-bipyrrolidin-2-one] | 3.04 | 3.62
20 |  |  | c1ccc2cc(-c3ccnc(N4CC[C@H](N5CCCC5)C4)n3)ccc2c1 [(3′S)-1′-[4-(2-naphthyl)pyrimidin-2-yl]-1,3′-bipyrrolidine] | 1.45 | 0.83
21 |  |  | O=C1N[C@H](C2CCN(c3nccc(-c4ccc5ccccc5c4)n3)CC2)CO1 [(4R)-4-{1-[4-(2-naphthyl)pyrimidin-2-yl]piperidin-4-yl}-1,3-oxazolidin-2-one] | 1.4 | 0.01
22 | 1.585 fold |  | CC1(C)OC(=O)N[C@@H]1C1CCN(c2nccc(-c3ccc4ccccc4c3)n2)CC1 [(4R)-5,5-dimethyl-4-{1-[4-(2-naphthyl)pyrimidin-2-yl]piperidin-4-yl}-1,3-oxazolidin-2-one] | 1.98 | 1.39
23 | 5.433 fold | 2680 nM | NCC1CCCN(c2nccc(-c3ccc4ccccc4c3)n2)C1 (stereo not shown) [({1-[4-(2-naphthyl)pyrimidin-2-yl]piperidin-3-yl}methyl)amine] | 2.9 | 0.005
24 | 3.390 fold | 1980 nM | NCC1CCN(c2nccc(-c3ccc4ccccc4c3)n2)CC1 [({1-[4-(2-naphthyl)pyrimidin-2-yl]piperidin-4-yl}methyl)amine] | 2.23 | 0.143
25 |  |  | CC(C)C(=O)N(C)CCN(C)[C@@H]1CCN(c2nccc(-c3ccc4ccccc4c3)n2)C1 [N,2-dimethyl-N-[2-(methyl{(3R)-1-[4-(2-naphthyl)pyrimidin-2-yl]pyrrolidin-3-yl}amino)ethyl]propanamide] |  | 1.5
26 |  |  | CN(CCN(C)S(=O)(=O)N(C)C)[C@@H]1CCN(c2nccc(-c3ccc4ccccc4c3)n2)C1 [N,N,N′-trimethyl-N′-[2-(methyl{(3R)-1-[4-(2-naphthyl)pyrimidin-2-yl]pyrrolidin-3-yl}amino)ethyl]sulfamide] | 1.3 | 
